Experimental data from US20240172748A1, “A SYNERGISTIC PLANT GROWTH STIMULANT COMPOSITION COMPRISING MELATONIN AND NITROGENOUS COMPOUNDS FOR IMPROVING PLANT GROWTH AND DECREASING BIOTIC-ABIOTIC STRESSES ON PLANTS” (FERTIS INDIA PVT. LTD., priority 2021, published 2024).

Experiments:
Type in all cases: in vivo
Paddy [1] = assay: Percentage of protein in grain, field trial on Paddy; details: area 10-meter square, 1 gm/liter foliar application
Source text: Example 11: Percentage of Protein in Grain
(§1) Field trail results on Paddy—Area 10-meter square 1 gm/liter Foliar Application

Paddy [2] = assay: Micronutrient analysis in grain, field trial on Paddy; details: area 10-meter square, 1 gm/liter foliar application
Source text: Example 9: Micronutrient Analysis in Grain
as §1

Paddy [3] = assay: Total protein content in percentage in grain, field trial on Paddy; details: area 10-meter square, lgm/liter foliar application
Source text: Example 12: Methionin with Plant Growth Hormone—Total Protein Content in Percentage in Grain
Field trail results on Paddy—Area 10-meter square lgm/liter Foliar Application

**Q.** How did the “% of Protein” value (Paddy [1]) turn out when `CNC(=O)NC` [Dimethyl urea] was run?
**A.** 0.0081%

**Q.** How did the “% of Protein” value (Paddy [1]) turn out when `O=CNC(=O)NC=O` [NN DFU, N,N′-Diformyl Urea] was run?
**A.** 0.0117%

**Q.** Which “% of Protein” value (Paddy [1]) does the source give for `NC(N)=O` [Urea] here?
**A.** 0.0063%

**Q.** What does the source list for `COc1ccc2[nH]cc(CCNC(C)=O)c2c1` [Melatonin]?
**A.** B (Boron) (Paddy [2]): 40.30 ppm; Ca (Calcium) (Paddy [2]): 375.00 ppm; Fe (Iron) (Paddy [2]): 300.00 ppm; Mg (Magnesium) (Paddy [2]): 609.00 ppm; Mn (Manganese) (Paddy [2]): 45.00 ppm; Zn (Zinc) (Paddy [2]): 36.50 ppm; Total Protein content in % (Paddy [3]): 0.076%

**Q.** `C=C1C[C@]23C[C@@]1(O)CC[C@H]2[C@@]12C=C[C@H](O)[C@@](C)(C(=O)O1)[C@H]2[C@@H]3C(=O)O` [Gibberellic acid] was tested. Which “Total Protein content in %” value (Paddy [3]) did it give?
**A.** 0.084%

**Q.** With `O=C(Nc1ccccc1)Nc1ccccc1` [Diphenyl urea] as the compound, how does the “% of Protein” value (Paddy [1]) read?
**A.** 0.0089%
